Data from PubChem BioAssay (NCI).
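1) Cells in 96-well plates. 2) Compound, 48 h, 5 concentrations. 3) Linear interpolation between surrounding doses. 4) Unreached endpoint = highest concentration. GI50: concentration for 50% inhibition of growth. TGI is the concentration that stops growth completely.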

How the values were obtained:
Experiment in all cases: inhibition of tumour cell growth, NCI panel, 48 h
SK-OV-3 ovarian = system: SK-OV-3 ovarian
UO-31 renal = system: UO-31 renal
A498 renal = system: A498 renal
SF-295 CNS = system: SF-295 CNS
NCI/ADR-RES ovarian = system: NCI/ADR-RES ovarian
HS 578T breast = system: HS 578T breast
HCT-116 colon = system: HCT-116 colon
LOX IMVI melanoma = system: LOX IMVI melanoma
NCI-H522 lung = system: NCI-H522 lung
NCI-H226 lung = system: NCI-H226 lung

Structure (SMILES) | GI50 (SK-OV-3 ovarian) | TGI (SK-OV-3 ovarian) | GI50 (UO-31 renal) | TGI (UO-31 renal) | GI50 (A498 renal) | TGI (A498 renal) | GI50 (SF-295 CNS) | TGI (SF-295 CNS) | GI50 (NCI/ADR-RES ovarian) | TGI (NCI/ADR-RES ovarian) | GI50 (HS 578T breast) | TGI (HS 578T breast) | GI50 (HCT-116 colon) | TGI (HCT-116 colon) | GI50 (LOX IMVI melanoma) | TGI (LOX IMVI melanoma) | GI50 (NCI-H522 lung) | TGI (NCI-H522 lung) | GI50 (NCI-H226 lung) | TGI (NCI-H226 lung)
Cc1c(-c2ccc(N3CCc4cccc(C(=O)Nc5nc6ccccc6s5)c4C3)nc2C(=O)O)cnn1CC12CC3CC(CC(C3)C1)C2 | 6.99 µM | 21.3 µM | 2.6 µM | 9.36 µM | < 0.01 µM | < 0.0127 µM | 3.53 µM | 11.6 µM | 14.7 µM | 38 µM | 3.77 µM | 38.4 µM | 3.23 µM | 14.9 µM | 5.92 µM | 23.4 µM | 10.8 µM | 28 µM | 13.7 µM | 50.6 µM
Nc1ccc(N)c2c1C(=O)c1cccc([N+](=O)[O-])c1C2=O | 3.43 µM | > 100 µM | 2.68 µM | > 22.6 µM | 0.125 µM | 1.03 µM | 0.776 µM | > 100 µM | 4.52 µM | > 100 µM | 2.47 µM | 26.2 µM | 2.73 µM | > 48.2 µM | 1.84 µM | > 100 µM | 1.46 µM | 17.9 µM | 0.312 µM | 
COc1cc([C@H]2c3cc(O)c(OC)cc3C[C@]3(O)[C@@H]2CO[C@@H]3O)ccc1O |  | > 100 µM |  | > 100 µM |  | > 100 µM |  | > 100 µM |  | > 100 µM |  | > 100 µM |  | > 100 µM |  | > 100 µM |  | > 100 µM |  | > 100 µM
CS(=O)(=O)Nc1ccc(Nc2c3ccccc3nc3cc(Cl)ccc23)cc1 | 1.28 µM | 13.3 µM | 0.58 µM | 8.96 µM | 1.15 µM | 7.22 µM | 1.07 µM | 15.3 µM | 3.93 µM | 37.5 µM | 2.83 µM | 40.4 µM | 0.84 µM | 13.1 µM | 0.406 µM | 4.79 µM | 2.33 µM | 15.4 µM | 0.672 µM | 6.17 µM
CC(=O)Nc1ccc(C(=O)COc2cccc(/C=C3\CCc4ccccc4C3=O)c2)cc1 | 30.1 µM | > 100 µM | 15.5 µM | 64 µM | 53.6 µM | > 100 µM | 11.2 µM | 39.6 µM | 10.5 µM | 65.9 µM | 32.6 µM | > 100 µM | 4.09 µM | 17.1 µM | 6.59 µM | 25.4 µM | 6.55 µM | 32.8 µM | 16.3 µM | > 100 µM
O=C(c1ccccc1)c1ccc(N2C(=O)C3C4c5ccccc5C(/C=C/C(=O)c5ccccn5)(c5ccccc54)C3C2=O)cc1 (stereo unspecified) | > 81.7 µM | > 100 µM | 1.45 µM | 2.92 µM | 2.19 µM | 5.8 µM | 2.03 µM | 5.07 µM | 2.68 µM | 12.8 µM | 2.98 µM | > 100 µM | 1.66 µM | 4.02 µM | 1.56 µM | 3.51 µM | 2.28 µM | 6.82 µM | 2.06 µM | 4.48 µM
COc1ccc(Cl)cc1Nc1nc(C(F)(F)F)ccc1C(=O)N/N=C/c1ccc(Cl)cc1 | 1.95 µM | 22.9 µM | 1.03 µM | > 100 µM | 18.2 µM | > 100 µM | 2.09 µM | 12.1 µM | 6.35 µM | > 100 µM | 22.3 µM | > 100 µM | 3.39 µM | 19.9 µM | 8.08 µM | > 100 µM | 4.16 µM | 42.5 µM | 4.18 µM | > 100 µM
N#Cc1c(N/N=C/c2c(Cl)cccc2Cl)nc(N)nc1N1CCCC1 | 5.12 µM | > 100 µM | 5.36 µM | > 100 µM | 0.502 µM | 3.18 µM | 1.02 µM | > 100 µM | 1.5 µM | 6.98 µM | 3.05 µM | > 100 µM | 1.01 µM | 16.8 µM | 2.16 µM | > 100 µM | 2.63 µM | 13.3 µM | 11.8 µM | > 100 µM
COc1ccc(C[C@H](N)C(=O)N[C@@H]2[C@@H](CO)OC(n3cnc4c(N(C)C)ncnc43)[C@@H]2O)cc1 (stereo partly specified) |  | 1.5 µM | 1.56 µM | 6.57 µM | 0.189 µM | 1.09 µM | 0.655 µM | 2.21 µM | 42.7 µM | 50 µM | 0.304 µM | 2.11 µM | 0.152 µM | 0.628 µM | 0.202 µM | 0.839 µM | 0.126 µM | 0.493 µM | 0.497 µM | 1.27 µM
CC(C)c1nc(Cl)c(Cl)c(Cl)n1 |  | 37.9 µM |  | 2.66 µM |  | 52 µM |  | 29 µM |  | 55.8 µM |  | 14 µM |  | 14.2 µM |  | 1.71 µM |  | 8.64 µM |  | 38.9 µM
COc1cc2c(cc1OCCCN1CCN(CCCn3c4ccccc4c4ccccc43)CC1)N=C[C@@H]1CCCN1C2=O | 0.32 µM | 1.27 µM | 0.174 µM | 0.491 µM | 0.158 µM | 0.35 µM | < 0.0359 µM | 0.235 µM | 1.37 µM | 4.93 µM |  | 0.254 µM | 0.156 µM | 3.93 µM | 0.0937 µM | 0.426 µM |  | 0.182 µM | 0.323 µM | 1.48 µM
CC(C)(CCc1nc2ccccc2[nH]1)C(=O)O |  | > 100 µM |  | > 100 µM |  | > 100 µM |  | > 100 µM |  | > 100 µM |  | > 100 µM |  | > 100 µM |  | > 100 µM |  | > 100 µM |  | > 100 µM
O=C1OC(c2ccccc2)=N/C1=C\c1ccc(N(CCCl)CCCl)cc1 |  | > 100 µM |  | > 100 µM |  | > 100 µM |  | > 100 µM |  | > 100 µM |  | > 100 µM |  | > 100 µM |  | > 100 µM |  | > 95.7 µM |  | > 100 µM
O=C(COC(=O)[C@H](C[Se][Se]C[C@H](NC(=O)c1ccc(Br)cc1F)C(=O)OCC(=O)c1ccc(F)cc1)NC(=O)c1ccc(Br)cc1F)c1ccc(F)cc1 | 0.415 µM | 1.31 µM | 1.11 µM | 2.79 µM | 0.306 µM | 1.04 µM | 0.0511 µM | 0.18 µM | 0.821 µM | 2.39 µM | 0.298 µM | 1.31 µM | 1.02 µM | 3.52 µM | 1.48 µM | 3.67 µM | 2.2 µM | 4.38 µM | 1.02 µM | 3.63 µM
